pIC50, pKi: −log10 of the molar value. Like-named read-outs stand apart in the source and are kept apart here.
Key:
[1] = system: histamine subtype 3 (H3) receptor; settings: cited from earlier work
[2] = cited from earlier work
histamine H3 [3] = biological target: T1, histamine H3 (Homo sapiens, UniProt Q9Y5N1); experiment: radioligand binding assay, H3
SERT = SERT (Homo sapiens, UniProt P31645); experiment: SERT activity in receptor profiling; format: binding
[4] = system: 68 GPCRs, ion channels and transporters; experiment: external panel of radioligand binding assays
[5] = biological target: T2, Dopamine Transporter, DAT (Homo sapiens, UniProt Q01959); experiment: radioligand binding assay, DAT
[6] = biological target: T3, norepinephrine transporter, NET (Homo sapiens, UniProt P23975); experiment: radioligand binding assay, NET
HCT116 cells = experiment: HCT116 colon carcinoma cell viability assay; format: cell-based; settings: for effect on HCT116 cell viability: after 48 hours
[7] = biological target: T3, norepinephrine transporter, NET; experiment: functional assay, NET; format: biochemical
[8] = biological target: T2, Dopamine Transporter, DAT; experiment: functional assay, DAT; format: biochemical
histamine H3 [9] = biological target: T1, histamine H3; experiment: functional assay, H3; format: biochemical
[10] = standard cytotoxicity assay
H520 cells [11] = experiment: BrdU proliferation assay, H520; format: cell-based; settings: 10 μM, 48 hours
H520 cells [12] = experiment: cell viability, H520; format: cell-based
SW620 cells [13] = experiment: cell viability, SW620; format: cell-based
SW620 cells [14] = experiment: BrdU proliferation assay, SW620; format: cell-based; settings: 10 μM, 48 hours
[15] = cited from earlier work; remark: listed apart in the source

T1 sequence (Q9Y5N1 whole entry): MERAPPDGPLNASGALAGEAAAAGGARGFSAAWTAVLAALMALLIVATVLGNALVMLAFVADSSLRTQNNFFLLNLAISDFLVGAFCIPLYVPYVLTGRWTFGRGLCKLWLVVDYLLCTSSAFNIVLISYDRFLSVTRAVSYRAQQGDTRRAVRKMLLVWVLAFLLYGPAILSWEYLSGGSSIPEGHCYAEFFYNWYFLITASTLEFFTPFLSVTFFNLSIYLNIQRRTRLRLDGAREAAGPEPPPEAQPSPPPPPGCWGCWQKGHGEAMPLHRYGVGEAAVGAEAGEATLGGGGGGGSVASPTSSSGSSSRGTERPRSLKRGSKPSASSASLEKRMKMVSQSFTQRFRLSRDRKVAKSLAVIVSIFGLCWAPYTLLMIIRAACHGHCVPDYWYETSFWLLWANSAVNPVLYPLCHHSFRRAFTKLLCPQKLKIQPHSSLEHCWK
T3 sequence (P23975 whole entry): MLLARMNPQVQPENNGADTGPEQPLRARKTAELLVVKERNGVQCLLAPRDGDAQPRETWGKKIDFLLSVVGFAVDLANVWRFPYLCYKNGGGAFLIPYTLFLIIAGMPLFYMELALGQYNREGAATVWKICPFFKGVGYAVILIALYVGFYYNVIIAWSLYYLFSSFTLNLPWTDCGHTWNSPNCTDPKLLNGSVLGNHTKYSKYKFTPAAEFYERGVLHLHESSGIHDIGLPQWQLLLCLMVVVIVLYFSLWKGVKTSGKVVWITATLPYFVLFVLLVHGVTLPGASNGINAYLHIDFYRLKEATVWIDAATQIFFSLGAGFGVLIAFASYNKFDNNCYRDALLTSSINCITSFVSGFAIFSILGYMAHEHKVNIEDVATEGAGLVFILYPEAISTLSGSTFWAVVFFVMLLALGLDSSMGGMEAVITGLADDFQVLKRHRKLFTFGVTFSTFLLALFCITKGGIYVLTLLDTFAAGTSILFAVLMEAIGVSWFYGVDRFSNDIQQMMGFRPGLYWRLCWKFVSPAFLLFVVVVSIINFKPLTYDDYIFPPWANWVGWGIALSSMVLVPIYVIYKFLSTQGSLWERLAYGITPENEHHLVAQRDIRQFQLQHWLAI
T2 sequence (Q01959 whole entry): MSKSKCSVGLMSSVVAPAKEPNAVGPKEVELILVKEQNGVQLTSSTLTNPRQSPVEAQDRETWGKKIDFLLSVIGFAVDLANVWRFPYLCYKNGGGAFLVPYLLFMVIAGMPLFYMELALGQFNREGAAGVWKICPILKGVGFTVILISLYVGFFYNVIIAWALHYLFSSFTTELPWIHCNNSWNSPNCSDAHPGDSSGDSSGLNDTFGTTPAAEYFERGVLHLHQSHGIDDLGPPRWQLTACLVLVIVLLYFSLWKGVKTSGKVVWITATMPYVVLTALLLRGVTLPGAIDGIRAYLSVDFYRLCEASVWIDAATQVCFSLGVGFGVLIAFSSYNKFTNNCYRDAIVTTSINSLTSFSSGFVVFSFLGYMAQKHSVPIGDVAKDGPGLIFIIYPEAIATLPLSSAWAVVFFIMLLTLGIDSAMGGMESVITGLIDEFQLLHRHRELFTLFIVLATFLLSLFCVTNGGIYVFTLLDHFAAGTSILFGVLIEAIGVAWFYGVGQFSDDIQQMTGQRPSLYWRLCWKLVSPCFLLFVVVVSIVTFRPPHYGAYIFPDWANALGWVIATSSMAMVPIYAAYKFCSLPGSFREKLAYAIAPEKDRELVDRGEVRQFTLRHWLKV
Sequence of SERT (P31645 whole entry, species assumed): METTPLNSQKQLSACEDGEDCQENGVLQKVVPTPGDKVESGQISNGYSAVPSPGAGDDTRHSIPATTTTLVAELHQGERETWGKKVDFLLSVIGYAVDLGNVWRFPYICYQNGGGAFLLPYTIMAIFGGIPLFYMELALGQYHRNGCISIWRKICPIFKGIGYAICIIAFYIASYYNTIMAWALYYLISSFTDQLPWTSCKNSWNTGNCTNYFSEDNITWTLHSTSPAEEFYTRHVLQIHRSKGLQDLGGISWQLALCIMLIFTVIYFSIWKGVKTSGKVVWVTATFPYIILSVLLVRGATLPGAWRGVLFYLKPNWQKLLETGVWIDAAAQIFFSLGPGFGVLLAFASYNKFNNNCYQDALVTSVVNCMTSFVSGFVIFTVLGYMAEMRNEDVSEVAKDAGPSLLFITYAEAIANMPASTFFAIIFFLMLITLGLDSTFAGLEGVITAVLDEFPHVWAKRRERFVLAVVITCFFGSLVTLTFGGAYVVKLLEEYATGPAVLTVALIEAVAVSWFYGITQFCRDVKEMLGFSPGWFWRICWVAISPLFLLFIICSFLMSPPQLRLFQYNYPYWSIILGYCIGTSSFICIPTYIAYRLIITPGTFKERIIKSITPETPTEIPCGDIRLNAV

SMILES: COc1ccc(C/C(=N\O)C(=O)NCCc2c[nH]cn2)cc1Br [compound 2, verogamine]
- affinity for and inhibition of H3 receptor [1]: displayed both affinity for, and inhibition of

SMILES: N=C(N)NCCC[C@H]1NCCc2c1[nH]c1cc(Br)ccc21 [compound 7, (+)-7-Bromotrypargine]
- antimalarial activity [2]: found to possess antimalarial activity
- % Inhibition (@10 μM) (histamine H3 [3]; 10 μM, radioligand binding): 74%
- pKi (histamine H3 [3]; binding): 5.74
- SERT activity (SERT): devoid of SERT activity
- SERT activity (SERT; listed as (+)-7-bromotrypargine): without inhibiting SERT
- pharmacological profile in panel of 68 targets [4]: significant percent inhibition at only three targets
- % Inhibition (@10 μM) ([5]; 10 μM, radioligand binding): 81%
- pKi ([5]; binding): 5.52
- % Inhibition (@10 μM) ([6]; 10 μM, radioligand binding): 82%
- pKi ([6]; binding): 5.72
- effect on HCT116 cell viability (HCT116 cells): no affect on HCT116 cell viability
- pIC50 [7]: 5.72
- pIC50 [8]: 5.42
- pIC50 (histamine H3 [9]): 5.44
- cytotoxicity: non-toxic up to [10]: > 20 µM

SMILES: NCCC[C@H]1NCCc2c1[nH]c1cc(Br)ccc21 [compound 21, (R)-3-(7-bromo-2,3,4,9-tetrahydro-1H-pyrido[3,4-b]indol-1-yl)propan-1-amine]
- inhibition of proliferation (BrdU) (H520 cells [11]): dramatic affects inhibiting proliferation
- activity on cell viability (H520 cells [12]): significant activity on cell viability
- pIC50 (HCT116 cells; Homo sapiens, HCT-116, 48 h): 5.52
- effect on HCT116 cell viability (HCT116 cells): completely killing the cells
- cytotoxicity in multiple cell lines (HCT116 cells; multiple non-transformed and colon cancer cell lines): extremely cytotoxic
- activity on cell viability (SW620 cells [13]): significant activity on cell viability
- inhibition of proliferation (BrdU) (SW620 cells [14]): dramatic affects inhibiting proliferation

SMILES: C[C@H]1[C@H]2CC[C@H]3[C@@H]4CC=C5C[C@@H](N(C)C)CC[C@]5(C)[C@H]4CC[C@]23CN1C [compound 3, conessine]
- affinity for and inhibition of H3 receptor [1]: displayed both affinity for, and inhibition of

SMILES: CN(C)CCCOc1ccc(CCNC(=O)c2cc(Br)c[nH]2)cc1Br [compound 4, dispyrin]
- affinity for and inhibition of H3 receptor [1]: displayed both affinity for, and inhibition of

SMILES: CN(C)CCCOc1c(Br)cc(CCN(C)C)cc1Br [compound 1, aplysamine]
- affinity for and inhibition of H3 receptor [1]: displayed both affinity for, and inhibition of

SMILES: N=C(N)NCCCC1NCCc2c1[nH]c1ccccc21 (stereo not drawn) [compound 5, trypargine]
- toxicity [15]: highly toxic

Source: paper PMC3254090 (ACS chemical neuroscience, 2011)
